From PMC7463460, “Structure and Antiparasitic Activity Relationship of Alkylphosphocholine Analogues against Leishmania donovani” (Microorganisms, 2020)
“And” between values parts separate entries of the source, which are not always exact repeats. Equal entries are not always repeated.

Assays:
L. donovani strain LV82 = test: Murine VL model, parasite burdens in spleen, liver and bone marrow; type: in vivo, Leishmania donovani in BALB/c mice
Method: BALB/c mice were infected by intravenous injection (tail vein, no anesthetic) with 1–2 × 10^7 L. donovani strain LV82 amastigote parasites, obtained from the spleen of an infected hamster. Mice (n = 4/treatment) were treated with PBS pH 7.4 (controls) or APC12 (40 or 80 mg/kg) by intravenous injection (tail vein, no anesthetic, 0.2 mL) on days 7 and 8 post-infection or a single oral dose on day 7 post-infection. Milt was not given orally at a dose of 80 mg/kg because of its potential toxicity. On day 14, parasite burdens in the liver, spleen and bone marrow were determined. Results are from duplicate experiments, however, if a treatment had no significant effect then it […] in subsequent experiments.

visceral leishmaniasis = details: VL monotherapy, Nepal, 12 months post-treatment; cited from earlier work
[1] = two-component population PK model; listed as Milt; cited from earlier work
[2] = 40 mg/kg IV, assessed day 14, Experiment 2
[3] = 40 mg/kg oral, day 7 post-infection, assessed day 14, Experiment 1
[4] = 80 mg/kg oral, assessed day 14, Experiment 2

| SMILES | Mean Parasite Burden ± SD Bone Marrow (L. donovani strain LV82; [2]) | Mean Parasite Burden ± SD Liver (L. donovani strain LV82; [2]) | Mean Parasite Burden ± SD Spleen (L. donovani strain LV82; [2]) | mean percentage suppression ± SD in parasite burden, Bone Marrow (L. donovani strain LV82; [2]) | mean percentage suppression ± SD in parasite burden, Liver (L. donovani strain LV82; [2]) | mean percentage suppression ± SD in parasite burden, Spleen (L. donovani strain LV82; [2]) | Mean Parasite Burden ± SD Bone Marrow (L. donovani strain LV82; [3]) | Mean Parasite Burden ± SD Liver (L. donovani strain LV82; [3]) | Mean Parasite Burden ± SD Spleen (L. donovani strain LV82; [3]) | mean percentage suppression ± SD in parasite burden, Bone Marrow (L. donovani strain LV82; [3]) | mean percentage suppression ± SD in parasite burden, Liver (L. donovani strain LV82; [3]) | mean percentage suppression ± SD in parasite burden, Spleen (L. donovani strain LV82; [3]) | Mean Parasite Burden ± SD Bone Marrow (L. donovani strain LV82; [4]) | Mean Parasite Burden ± SD Liver (L. donovani strain LV82; [4]) | Mean Parasite Burden ± SD Spleen (L. donovani strain LV82; [4]) | mean percentage suppression ± SD in parasite burden, Bone Marrow (L. donovani strain LV82; [4]) | mean percentage suppression ± SD in parasite burden, Liver (L. donovani strain LV82; [4]) | mean percentage suppression ± SD in parasite burden, Spleen (L. donovani strain LV82; [4]) | relapse rate (visceral leishmaniasis) | threshold concentration between non-saturable and saturable component [1] |
| --- | --- | --- | --- | --- | --- | --- | --- | --- | --- | --- | --- | --- | --- | --- | --- | --- | --- | --- | --- | --- |
| CCCCCCCCCCCCOP(=O)([O-])OCC[N+](C)(C)C [APC12, dodecylphosphocholine] | 555 ± 254 | 434 ± 197 | 112 ± 30 | 8 ± 14% | 60 ± 11% and 60 ± 19% | 60 ± 19% and 60 ± 11% | 210 ± 90 | 880 ± 276 | 275 ± 96 | 54 ± 34% | 36 ± 34% | 8 ± 18% | 607 ± 115 | 939 ± 170 | 257 ± 73 | 2 ± 4% | 27 ± 16% | 13 ± 27% |  |  |
| CCCCCCCCCCCCCCCCOP(=O)([O-])OCC[N+](C)(C)C [APC16, hexadecylphosphocholine, reference compound] |  |  |  |  |  |  | 197 ± 157 | 433 ± 46 | 73 ± 68 | 30 ± 35% | 40 ± 25% | 53 ± 31% |  |  |  |  |  |  | 20% | 50 μM and 20.4 μg/mL |
